Measurements: US20030148963A1 (priority 2000, published 2003)
Read-outs that look alike come from different tables or passages of the source. Marks after values point to notes of the source that are not given here.

Columns and labels:
IL-6 = IL-6 release by IC-21 macrophage cell line; format: cell-based, murine
Description: (§1) These cells display many typical features of the macrophage phenotype and are therefore a suitable model for studying cytoline and chemokine release during inflammation (16). The cells were maintained in continous culture using RPMI-1640 supplemented with 10% FCS, L-glutamine, and gentamycin. When the cells had grown to about 70% confluency, they were seeded into a 24-well-plate (Nunc) at a concentration of 1×10^5 per well and incubated at 37° C. in 5% CO2 for 24 h. […] After 24 h of incubation, the cells were washed once with PBS, and reincubated with medium containing different concentrations (1, 10, 100, 1000 ng/ml) of LPS (Difco) and IFN-γ (10, 50, 100 u/nml). The interferon-γ was purified from the supernatants from Chinese hanater ovary (CHO) cells transfected with the murine IFN-γ gene (hybridoma kindly provided by Dr. Morris, Department of Biological Sciences, University of Warwick, Coventry, UK). After 2 and 24 h of incubation the supernatants were collected and stored at −20° C. until analysis.

MIP-1α [1] = experiment: Serum MIP-1α in CII immunized mice (ELISA); format: in vivo, B10.QxDBA/1 female mice; conditions: serum at end of experiment, mean ± SEM
Description: (§2) Levels of TNF, IL-1b, RANTES, and macrophage inflammatory protein (MIP)-1α were determined using sandwich ELISA from R&D Systems (Minneapolis, Minn.).

RANTES = RANTES release by IC-21 macrophage cell line; format: cell-based, murine; conditions: data not shown
Description: as §2, §1

[2] = test system: peripheral blood leukocytes; experiment: Hematological analyses during S. aureus infection; format: in vivo, NMRI mice
Description: (§3) Hematological Analyses Mice were bled from the tail into heparinized tubes on days −3, −1, 3, and 6-7 after bacterial inoculation. The leukocytes were counted in a hemacytometer (Toa Medical Electronics, Kobe, Japan). Fifty microliters of the heparinized blood was analysed in a FACScan cytometer (Becton Dickinson, San Jose, Calif.) to determine the percentages of lymphocytes, granulocytes, and monocytes, respectively. The absolute numbers of different leukocyte subsets were then calculated from the total leukocyte counts.

TNF [3] = experiment: TNF release by IC-21 macrophage cell line; format: cell-based, murine
Description: as §2, §1

peripheral leukocytes [4] = experiment: Hematological analyses in CII immunized mice; format: in vivo, B10.QxDBA/1 female mice
Description: as §3, with “Mice” for “Hematological Analyses Mice”, “at different time-points.” for “on days −3, −1, 3, and 6-7 after bacterial inoculation.”, “analyzed” for “analysed”, “monocytes.” for “monocytes, respectively.”

peripheral leukocytes [5] = experiment: Peripheral blood cell count in naive mice; format: in vivo; conditions: 12.5 mg/kg 4 days per week for 4 weeks, 3 days after last treatment
Description: as §3, with “Mice” for “Hematological Analyses Mice”, “at different time-points.” for “on days −3, −1, 3, and 6-7 after bacterial inoculation.”, “analyzed” for “analysed”, “monocytes.” for “monocytes, respectively.”

[6] = test system: draining lymph node cells; experiment: Draining lymph node response after CII immunization; format: in vivo, mice
MIP-1α [7] = experiment: MIP-1α release by IC-21 macrophage cell line; format: cell-based, murine
Description: as §2, §1

[8] = test system: collagen induced arthritis (CIA); experiment: Collagen induced arthritis, histopathological examination of joints; format: in vivo, B10.QxDBA/1 female mice
Description: Histopathological examination was performed after routine fixation, decalcification, paraffin embedding, and staining with hematoxylin and eosin. All the slides were coded and the joints were studied with regard to synovial hypertrophy (defined as a synovial membrane thickness of more than two cell layers), pannus formation (synovial tissue overlaying the joint cartilage), and cartilage and bone destruction (loss of tissue integrity with resulting ingrowth of fibrotic tissue) (11). The severity of synovial hypertrophy and cartilage/bone destruction was scored from 0 (intact synovial, cartilage/bone tissue) to 3 (intense synovitis with total destruction of cartilage and/or bone).

TNF [9] = format: cell-based, NMRI mice; conditions: 24 h supernatant, mean ± SEM
Description: Spleens were obtained from healthy NMRI mice. […] The cells (2×10^61/Ml) were cultured in Iscove's complete medium (10% FCS, 5×10^−5 M 2-mercaptoethanol, 2 mM L-glutamine, and 50 μg/ml gentamicin). […] To determine the proliferative response, the cells were cultured in 96-well plates (Nunc) for 3 days. The cultures were pulsed with 1 μCi of (^3H)TdR (Amersham, Bucks, UK) 12 h before harvest and calculation of TdR uptake in a beta counter. The levels of TNF.- were determined using sandwich enzyme-linked immunosorbent assays (ELISA) kit from R&D Systems Minneapolis, Minn.).

IL-1α = experiment: IL-1 release by IC-21 macrophage cell line; format: cell-based, murine
[10] = etoposide 0.01 μM 24 h, then IFN-γ 10 u/ml 24 h
[11] = etoposide 0.01 μM 24 h, then IFN-γ 50 u/ml 24 h
[12] = etoposide 0.01 μM 24 h, then IFN-γ 100 u/ml 24 h
[13] = etoposide 0.1 μM 24 h, then IFN-γ 10 u/ml 24 h
[14] = etoposide 0.1 μM 24 h, then IFN-γ 50 u/ml 24 h
[15] = etoposide 0.1 μM 24 h, then IFN-γ 100 u/ml 24 h
[16] = Etoposide-pretreated, Day-2 (prior to experiment, baseline)
[17] = Etoposide-treated (from day 40), Day 61
[18] = Etoposide-treated (from day 40), Day-2 (baseline)
[19] = Etoposide pretreated, n 16, day 61
[20] = Etoposide treated (from day 40), n 17, day 61, mean ± SEM

Compound: COc1cc([C@@H]2c3cc4c(cc3[C@@H](O[C@@H]3O[C@@H]5CO[C@@H](C)O[C@H]5[C@H](O)[C@H]3O)[C@H]3COC(=O)[C@H]23)OCO4)cc(OC)c1O [Etoposide]
- Levels of IL-6 in supernatants (IL-6; IC-21, stimulated with IFN-γ, levels very low, FIG. 6B): seemed to be upregulated
- Levels of IL-6 in supernatants (IL-6; IC-21, stimulation by LPS, FIG. 6A): downregulated
- MIP-1a (MIP-1α [1]; Etoposide-pretreated): 3.0 ± 0.5^c pg/ml
- MIP-1a (MIP-1α [1]; Etoposide-treated (from day 40)): 2.9 ± 0.3^c pg/ml
- RANTES release (RANTES): upregulated
- Numbers of lymphocytes ([2]; day prior to bacterial inoculation): 5.6±0.4 ×10^6/ml
- Numbers of granulocytes ([2]; day −1): 1.3±0.2 ×10^6/ml
- Levels of circulating monocytes ([2]; etoposide from three days prior to S. aureus inoculation, FIG. 4): significantly decreased
- Numbers of lymphocytes ([2]; seven days after infection): 0.8±0.2 ×10^6/ml
- Numbers of granulocytes ([2]; seven days after the inoculation): 1.6±0.4 ×10^6/ml
- Levels of TNF in supernatants (TNF [3]; [10]): 52 pg/mL
- Levels of TNF in supernatants (TNF [3]; [11]): 56 pg/mL
- Levels of TNF in supernatants (TNF [3]; [12]): 65 pg/mL
- Levels of TNF in supernatants (TNF [3]; etoposide 0.01 μM 24 h, then LPS 0 ng/ml 24 h): 66 pg/mL
- Levels of TNF in supernatants (TNF [3]; etoposide 0.01 μM 24 h, then LPS 1 ng/ml 24 h): 207 pg/mL
- Levels of TNF in supernatants (TNF [3]; etoposide 0.01 μM 24 h, then LPS 10 ng/ml 24 h): 3050 pg/mL
- Levels of TNF in supernatants (TNF [3]; etoposide 0.01 μM 24 h, then LPS 100 ng/ml 24 h): 11900 pg/mL
- Levels of TNF in supernatants (TNF [3]; etoposide 0.01 μM 24 h, then LPS 1000 ng/ml 24 h): 12375 pg/mL
- Levels of TNF in supernatants (TNF [3]; [13]): 20 pg/mL
- Levels of TNF in supernatants (TNF [3]; [14]): 32 pg/mL
- Levels of TNF in supernatants (TNF [3]; [15]): 34 pg/mL
- Levels of TNF in supernatants (TNF [3]; etoposide 0.1 μM 24 h, then LPS 0 ng/ml 24 h): 24 pg/mL
- Levels of TNF in supernatants (TNF [3]; etoposide 0.1 μM 24 h, then LPS 1 ng/ml 24 h): 72 pg/mL
- Levels of TNF in supernatants (TNF [3]; etoposide 0.1 μM 24 h, then LPS 10 ng/ml 24 h): 1125 pg/mL
- Levels of TNF in supernatants (TNF [3]; etoposide 0.1 μM 24 h, then LPS 100 ng/ml 24 h): 2325 pg/mL
- Levels of TNF in supernatants (TNF [3]; etoposide 0.1 μM 24 h, then LPS 1000 ng/ml 24 h): 3650 pg/mL
- Granulocytes (peripheral leukocytes [4]; Etoposide-pretreated, Day 61): 698 ± 341^b × 10^4/ml
- Lymphocytes (peripheral leukocytes [4]; Etoposide-pretreated, Day 61): 7.1 ± 3.4 × 10^6/ml
- Monocytes (peripheral leukocytes [4]; Etoposide-pretreated, Day 61): 67 ± 20 × 10^4/ml
- Granulocytes (peripheral leukocytes [4]; [16]): 71 ± 13 × 10^4/ml
- Lymphocytes (peripheral leukocytes [4]; [16]): 4.7 ± 0.3 × 10^6/ml
- Monocytes (peripheral leukocytes [4]; [16]): 18 ± 4 × 10^4/ml
- Granulocytes (peripheral leukocytes [4]; [17]): 991 ± 326^b × 10^4/ml
- Lymphocytes (peripheral leukocytes [4]; [17]): 14.3 ± 3.3^b × 10^6/ml
- Monocytes (peripheral leukocytes [4]; [17]): 92 ± 24^a × 10^4/ml
- Granulocytes (peripheral leukocytes [4]; [18]): 87 ± 20 × 10^4/ml
- Lymphocytes (peripheral leukocytes [4]; [18]): 5.9 ± 0.8 × 10^6/ml
- Monocytes (peripheral leukocytes [4]; [18]): 19 ± 3 × 10^4/ml
- Numbers of granulocytes (peripheral leukocytes [5]): 1.1±0.4 ×10^4/ml
- Numbers of monocytes (peripheral leukocytes [5]): 71±28 ×10^4/ml
- Numbers of B cells, T cells, macrophages and germinal centers in inguinal lymph nodes ([6]; 10 days after CII immunization, immunohistochemical stainings): no significant effects on numbers
- Antibodies to CII in lymph node cell cultures ([6]; lymph node cells challenged in vitro with CII, vs PBS controls): not produced at all
- T cell functions (proliferation, IFN-γ secretion) of lymph node cells ([6]; lymph node cells challenged in vitro with CII, data not shown): no difference in T cell functions
- Levels of MIP-1α in supernatants (MIP-1α [7]; etoposide 0.01 μM 24 h, then IFN-γ 0 u/ml 24 h): 5700 pg/mL
- Levels of MIP-1α in supernatants (MIP-1α [7]; [10]): 4200 pg/mL
- Levels of MIP-1α in supernatants (MIP-1α [7]; [11]): 1075 pg/mL
- Levels of MIP-1α in supernatants (MIP-1α [7]; [12]): 800 pg/mL
- Levels of MIP-1α in supernatants (MIP-1α [7]; etoposide 0.1 μM 24 h, then IFN-γ 0 u/ml 24 h): 3400 pg/mL
- Levels of MIP-1α in supernatants (MIP-1α [7]; [13]): 1950 pg/mL
- Levels of MIP-1α in supernatants (MIP-1α [7]; [14]): 900 pg/mL
- Levels of MIP-1α in supernatants (MIP-1α [7]; [15]): 488 pg/mL
- Cartilage/bone destruction score [8, 19]: 0
- Synovial hypertrophy score [8, 19]: 0
- Cartilage/bone destruction score [8, 20]: 4.5 ± 2.4
- Synovial hypertrophy score [8, 20]: 2.4 ± 1.1
- TNF, ConA stimulated (TNF [9]; etoposide 1 μM, four mice): 167 ± 29 pg/mL
- TNF, TSST-1 stimulated (TNF [9]; etoposide 1 μM, four mice): 64 ± 20 pg/mL
- TNF, ConA stimulated (TNF [9]; etoposide 10 μM): 66 ± 19^b pg/ml
- TNF, TSST-1 stimulated (TNF [9]; etoposide 10 μM): 38 ± 8^b pg/ml
- TNF, ConA stimulated (TNF [9]; etoposide 100 μM): 10 ± 1^b pg/ml
- TNF, TSST-1 stimulated (TNF [9]; etoposide 100 μM): 16 ± 3^b pg/ml
- Levels of IL-1α (IL-1α): No major differences
